Test system: PC12 cells
Assay: Neurite sprouting in PC12 cells
Format: cell-based
Conditions: 10^-6 M, serum-free vehicle with 50 ng/ml NGF, third day; controls 21.5
Experimental: The cells are then washed three times in a serum-free vehicle. […] This effect is evaluated by counting the number of cells with neurites at the third day.

SMILES | % of the no. of cells with neurites at 3rd day
CCCCCCCCCCCCC/C=C/[C@@H](O)[C@H](CO[C@@H]1O[C@H](CO)[C@@H](O[C@@H]2O[C@H](CO)[C@H](O[C@@H]3O[C@H](CO)[C@H](O)[C@H](O[C@@H]4O[C@H](CO)[C@H](O)[C@H](O)[C@H]4O)[C@H]3NC(C)=O)[C@H](O[C@]3(C(=O)NCCCN(C)C)C[C@H](O)[C@@H](NC(C)=O)[C@H]([C@H](O)[C@H](O)CO)O3)[C@H]2O)[C@H](O)[C@H]1O)NC(=O)CCCCCCCCCCCCCCCCC [3-dimethylaminopropyl-1-amide of GM1, 3-dimethylaminopropyl-1-amide of the ganglioside GM1] | 37.3%
CCCCCCCCCCCCC/C=C/[C@@H](O)[C@H](CO[C@@H]1O[C@H](CO)[C@@H](O[C@@H]2O[C@H](CO)[C@H](O[C@@H]3O[C@H](CO)[C@H](O)[C@H](O[C@@H]4O[C@H](CO)[C@H](O)[C@H](O)[C@H]4O)[C@H]3NC(C)=O)[C@H](O[C@]3(C(=O)NCCCCCCO)C[C@H](O)[C@@H](NC(C)=O)[C@H]([C@H](O)[C@H](O)CO)O3)[C@H]2O)[C@H](O)[C@H]1O)NC(=O)CCCCCCCCCCCCCCCCC [6-hydroxyhexyl-1-amide of GM1, 6-hydroxyhexyl-1-amide of the ganglioside GM1] | 36.4%
C=CCOC(=O)[C@@]1(O[C@@H]2[C@@H](O)[C@H](O[C@H]3[C@H](O)[C@@H](O)[C@H](OC[C@H](NC(=O)CCCCCCCCCCCCCCCCC)[C@H](O)/C=C/CCCCCCCCCCCCC)O[C@@H]3CO)O[C@H](CO)[C@@H]2O[C@@H]2O[C@H](CO)[C@H](O)[C@H](O[C@@H]3O[C@H](CO)[C@H](O)[C@H](O)[C@H]3O)[C@H]2NC(C)=O)C[C@H](O)[C@@H](NC(C)=O)[C@H]([C@H](O)[C@H](O)CO)O1 [Allylic ester of GM1, Allyl ester of the ganglioside GM1] | 31.5%
CCCCCCCCCCCCC/C=C/[C@@H](OC(C)=O)[C@H](CO[C@@H]1O[C@H](COC(C)=O)[C@@H](O[C@@H]2O[C@H](COC(C)=O)[C@H](O[C@@H]3O[C@H](COC(C)=O)[C@H](OC(C)=O)[C@H](O[C@@H]4O[C@H](COC(C)=O)[C@H](OC(C)=O)[C@H](OC(C)=O)[C@H]4OC(C)=O)[C@H]3NC(C)=O)[C@H](O[C@]3(C(N)=O)C[C@H](OC(C)=O)[C@@H](NC(C)=O)[C@H]([C@H](OC(C)=O)[C@@H](COC(C)=O)OC(C)=O)O3)[C@H]2OC(C)=O)[C@H](OC(C)=O)[C@H]1OC(C)=O)NC(=O)CCCCCCCCCCCCCCCCC [Amide of peracetylated GM1, Peracetylated derivative of the amide of the ganglioside GM1] | 31.4%
CCCCCCCCCCCCC/C=C/[C@@H](O)[C@H](CO[C@@H]1O[C@H](CO)[C@@H](O[C@@H]2O[C@H](CO)[C@H](O[C@@H]3O[C@H](CO)[C@H](O)[C@H](O[C@@H]4O[C@H](CO)[C@H](O)[C@H](O)[C@H]4O)[C@H]3NC(C)=O)[C@H](O[C@]3(C(=O)NCc4ccccc4)C[C@H](O)[C@@H](NC(C)=O)[C@H]([C@H](O)[C@H](O)CO)O3)[C@H]2O)[C@H](O)[C@H]1O)NC(=O)CCCCCCCCCCCCCCCCC [Benzylamide of GM1, Benzylamide of the ganglioside GM1] | 30.8%
CCCCCCCCCCCCC/C=C/[C@@H](O)[C@H](CO[C@@H]1O[C@H](CO)[C@@H](O[C@@H]2O[C@H](CO)[C@H](O[C@@H]3O[C@H](CO)[C@H](O)[C@H](O[C@@H]4O[C@H](CO)[C@H](O)[C@H](O)[C@H]4O)[C@H]3NC(C)=O)[C@H](O[C@]3(C(=O)OCc4ccccc4)C[C@H](O)[C@@H](NC(C)=O)[C@H]([C@H](O)[C@H](O)CO)O3)[C@H]2O)[C@H](O)[C@H]1O)NC(=O)CCCCCCCCCCCCCCCCC [Benzylic ester of GM1, Benzyl ester of the ganglioside GM1] | 28.3%
CCCCCCCCCCCCC/C=C/[C@@H](O)[C@H](CO[C@@H]1O[C@H](CO)[C@@H](O[C@@H]2O[C@H](CO)[C@H](O[C@@H]3O[C@H](CO)[C@H](O)[C@H](O[C@@H]4O[C@H](CO)[C@H](O)[C@H](O)[C@H]4O)[C@H]3NC(C)=O)[C@H](O[C@]3(C(=O)N(CC)CC)C[C@H](O)[C@@H](NC(C)=O)[C@H]([C@H](O)[C@H](O)CO)O3)[C@H]2O)[C@H](O)[C@H]1O)NC(=O)CCCCCCCCCCCCCCCCC [Diethylamide of GM1, Diethylamide of the ganglioside GM1] | 28.5%
CCCCCCCCCCCCC/C=C/[C@@H](O)[C@H](CO[C@@H]1O[C@H](CO)[C@@H](O[C@@H]2O[C@H](CO)[C@H](O[C@@H]3O[C@H](CO)[C@H](O)[C@H](O[C@@H]4O[C@H](CO)[C@H](O)[C@H](O)[C@H]4O)[C@H]3NC(C)=O)[C@H](O[C@]3(C(=O)N(C)C)C[C@H](O)[C@@H](NC(C)=O)[C@H]([C@H](O)[C@H](O)CO)O3)[C@H]2O)[C@H](O)[C@H]1O)NC(=O)CCCCCCCCCCCCCCCCC [Dimethylamide of GM1, Dimethylamide of the ganglioside GM1] | 34.3%
CCCCCCCCCCCCC/C=C/[C@@H](O)[C@H](CO[C@@H]1O[C@H](CO)[C@@H](O[C@@H]2O[C@H](CO)[C@H](O[C@@H]3O[C@H](CO)[C@H](O)[C@H](O[C@@H]4O[C@H](CO)[C@H](O)[C@H](O)[C@H]4O)[C@H]3NC(C)=O)[C@H](O[C@]3(C(=O)NCCN(C)C)C[C@H](O)[C@@H](NC(C)=O)[C@H]([C@H](O)[C@H](O)CO)O3)[C@H]2O)[C@H](O)[C@H]1O)NC(=O)CCCCCCCCCCCCCCCCC [Dimethylaminoethylamide of GM1, Dimethylaminoethylamide of the ganglioside GM1] | 34.8%
CCCCCCCCCCCCC/C=C/[C@@H](O)[C@H](CO[C@@H]1O[C@H](CO)[C@@H](O[C@@H]2O[C@H](CO)[C@H](O[C@@H]3O[C@H](CO)[C@H](O)[C@H](O[C@@H]4O[C@H](CO)[C@H](O)[C@H](O)[C@H]4O)[C@H]3NC(C)=O)[C@H](O[C@]3(C(=O)NCCO)C[C@H](O)[C@@H](NC(C)=O)[C@H]([C@H](O)[C@H](O)CO)O3)[C@H]2O)[C@H](O)[C@H]1O)NC(=O)CCCCCCCCCCCCCCCCC [Ethanolamide of GM1, Ethanolamide of the ganglioside GM1] | 41.2%
CCCCCCCCCCCCC/C=C/[C@@H](O)[C@H](CO[C@@H]1O[C@H](CO)[C@@H](O[C@@H]2O[C@H](CO)[C@H](O[C@@H]3O[C@H](CO)[C@H](O)[C@H](O[C@@H]4O[C@H](CO)[C@H](O)[C@H](O)[C@H]4O)[C@H]3NC(C)=O)[C@H](O[C@]3(C(=O)NCC)C[C@H](O)[C@@H](NC(C)=O)[C@H]([C@H](O)[C@H](O)CO)O3)[C@H]2O)[C@H](O)[C@H]1O)NC(=O)CCCCCCCCCCCCCCCCC [Ethylamide of GM1, Ethylamide of the ganglioside GM1] | 32.2%
CCCCCCCCCCCCC/C=C/[C@@H](O)[C@H](CO[C@@H]1O[C@H](CO)[C@@H](O[C@@H]2O[C@H](CO)[C@H](O[C@@H]3O[C@H](CO)[C@H](O)[C@H](O[C@@H]4O[C@H](CO)[C@H](O)[C@H](O)[C@H]4O)[C@H]3NC(C)=O)[C@H](O[C@]3(C(=O)OCC)C[C@H](O)[C@@H](NC(C)=O)[C@H]([C@H](O)[C@H](O)CO)O3)[C@H]2O)[C@H](O)[C@H]1O)NC(=O)CCCCCCCCCCCCCCCCC [Ethylic ester of GM1, Ethyl ester of the ganglioside GM1] | 37.1%
CCCCCCCCCCCCC/C=C/[C@@H](O)[C@H](CO[C@@H]1O[C@H](CO)[C@@H](O[C@@H]2O[C@H](CO)[C@H](O[C@@H]3O[C@H](CO)[C@H](O)[C@H](O[C@@H]4O[C@H](CO)[C@H](O)[C@H](O)[C@H]4O)[C@H]3NC(C)=O)[C@H](O[C@]3(C(=O)N(C)CC)C[C@H](O)[C@@H](NC(C)=O)[C@H]([C@H](O)[C@H](O)CO)O3)[C@H]2O)[C@H](O)[C@H]1O)NC(=O)CCCCCCCCCCCCCCCCC [Ethylmethylamide of GM1, Ethylmethylamide of the ganglioside GM1] | 35.3%
CCCCCCCCCCCCC/C=C/[C@@H](O)[C@H](CO[C@@H]1O[C@H](CO)[C@@H](O[C@@H]2O[C@H](CO)[C@H](O[C@@H]3O[C@H](CO)[C@H](O)[C@H](O[C@@H]4O[C@H](CO)[C@H](O)[C@H](O)[C@H]4O)[C@H]3NC(C)=O)[C@H](O[C@]3(C(=O)OCC(=O)OCC)C[C@H](O)[C@@H](NC(C)=O)[C@H]([C@H](O)[C@H](O)CO)O3)[C@H]2O)[C@H](O)[C@H]1O)NC(=O)CCCCCCCCCCCCCCCCC [Etoxycarbonylmethylic ester of GM1, Ethoxycarbonylmethyl ester of the ganglioside GM1] | 27.3%
CCCCCCCCCCCCC/C=C/[C@@H](O)[C@H](CO[C@@H]1O[C@H](CO)[C@@H](O[C@@H]2O[C@H](CO)[C@H](O[C@@H]3O[C@H](CO)[C@H](O)[C@H](O[C@@H]4O[C@H](CO)[C@H](O)[C@H](O)[C@H]4O)[C@H]3NC(C)=O)[C@H](O[C@]3(C(=O)NC(C)C)C[C@H](O)[C@@H](NC(C)=O)[C@H]([C@H](O)[C@H](O)CO)O3)[C@H]2O)[C@H](O)[C@H]1O)NC(=O)CCCCCCCCCCCCCCCCC [Isopropylamide of GM1, Isopropylamide of the ganglioside GM1] | 31.4%
CCCCCCCCCCCCC/C=C/[C@@H](O)[C@H](CO[C@@H]1O[C@H](CO)[C@@H](O[C@@H]2O[C@H](CO)[C@H](O[C@@H]3O[C@H](CO)[C@H](O)[C@H](O[C@@H]4O[C@H](CO)[C@H](O)[C@H](O)[C@H]4O)[C@H]3NC(C)=O)[C@H](O[C@]3(C(=O)OC(C)C)C[C@H](O)[C@@H](NC(C)=O)[C@H]([C@H](O)[C@H](O)CO)O3)[C@H]2O)[C@H](O)[C@H]1O)NC(=O)CCCCCCCCCCCCCCCCC [Isopropylic ester of GM1, Isopropyl ester of the ganglioside GM1] | 37.0%
